One test has as its target TRPML1 (Homo sapiens, UniProt Q9GZU1). The test can be described thus: Calcium flux in HEK293 overexpressing TRPML1 plasma membrane variant (FLIPR, Calcium 6 dye). The format is cell-based. The settings on record: HEK293/TRPML1-PM clone A5 cells; 4-parameter logistic fit; read-out: TRPML1 calcium flux (FLIPR) dose response: EC50. The text has this:
Example B1. Calcium Flux in HEK293 Overexpressing TRPML1 Plasma Membrane Variant—Calcium 6 Dye
Cells: HEK293/TRPML1-PM clone A5, clonal cell line containing mutant TRPML1 (both N- and C-terminal dileucine targeting motifs deleted) that localizes to the plasma membrane
Plates: Perkin Elmer Viewplate cat. #6007460, black optically clear, tissue culture treated 384-well plate
Calcium dye: Molecular Devices FLIPR Calcium 6 Assay Kit, cat. #R8190 or Fluo-4 Direct from Thermo Fisher, cat. #F10471
Tips: Molecular Devices 384-well FLIPR Tetra black tips, cat. #9000-0764 Example B1.2 Method
HEK293/TRPML1-PM clone A5 cells were trypsinized from flasks, counted, then diluted in media to 15,000 cells per 25 μL, and seeded into a black, 384-well viewplate, and cultured overnight.
One vial of calcium 6 dye was diluted with 10 mL of assay buffer (HBSS+20 mM HEPES pH 7.4) and 25 μL of the dilution was added per well to the cells.
After incubating for 2 hours at 37° C., the plate was moved to the FLIPR in the read position.
The compounds were diluted in EMEM with 0.125% FBS to 5× concentration and loaded in a 384-well plate according to the desired plate map for the assay, including DMSO alone and carbachol controls, then the plate was moved to the FLIPR in the source 2 position.
A box of tips was placed in the source 1 position within the FLIPR to complete the assay set up.
Once the run was started, an initial baseline fluorescent measurement was performed for 10 seconds (470-495 nm excitation and 515-575 nm emission) prior to adding the compounds.
12.5 μL of 5× test compound, DMSO alone, or carbachol were added via the FLIPR and real-time fluorescence measurements were performed for an additional 170 seconds with 1 read per second.
The data was normalized to baseline by calculating maximum fluorescence minus minimum fluorescence and plotted as response (fold) over the baseline versus log ([…] concentration). The EC50 was determined using a 4-parameter logistic curve fit in Graphpad Prism 9.

In a further test the test system is TFEB. The test can be described thus: TFEB translocation assay in HeLa cells (nuclear to cytoplasmic TFEB ratio, high-content imaging). The format is cell-based. The conditions noted are these: Homo sapiens, HeLa, 1.5 h, 90 mins incubation at 37° C., ratio of nuclear to cytoplasmic TFEB. On the procedure:
Example B2. TFEB Translocation Assay
Rabbit TFEB antibody, Cell Signaling Technology #4240S
PFA 16% MeOH-free, Election Microscopy Sciences #50-980-487
HCS CellMask Deep Red, ThermoFisher Scientific #H32721
Plates: Perkin Elmer Phenoplate #605730 black optically clear, tissue culture treated 384-well plate
Example B2.2 Method, Day 1: Cells Seeded in 384WP
Cells were seeded in the afternoon. The outer one row of the plate was not used to avoid outer well edge effects.
HeLa cells were detached using trypsin, and the cells were counted using a cell counter.
4000 HeLa cells were seeded per well in […] growth media (DMEM with 10% FBS, 1 mM sodium pyruvate and Pen-Strep).
Example B2.3 Method, Day 2: Assay with TRPML1 Compounds+Staining
Compounds were added to cells using a Tecan D300e dispenser.
Cells were incubated for 90 mins at 37° C. with the compounds (compound range: 80 nM-[…] (2× step dilution—8 dilution steps, 3 replicates per condition)
The cells were fixed by adding 16.5 μL of 16% PFA (4% final) and incubating for 15 min at room temperature.
The cells were washed with 3× in PBS-TX (PBS+0.1% Triton X-100)−1×100 μL followed by 2×50 μL.
The cells were blocked and permeabilized in 30 μL of blocking buffer (PBS-TX+5% goat serum) for 1 h.
The cells were incubated with TFEB antibody (1:200, CST 4240S) in 30 μL blocking buffer overnight at 4° C. The plates were kept damp to avoid evaporation.
Example B2.4 Method, Day 3: Staining+Imaging
The cells were washed 3× in PBS-TX—3×100 μL with a Biotek EL406 washer.
The cells were incubated with Goat anti-Rb Alexa-Fluor 488 (1:2000), cell mask (1:10,000) and Hoechst (1:10,000) in 30 μL blocking buffer for 1 h at room temperature. The solution was dispensed using a 5 μL peristaltic cassette (EL406).
The cells were washed 3× in PBS-TX—3×100 μL with a EL406 washer, then […] PBS was dispensed using a 5 μL peristaltic cassette (EL406).
The cells were imaged on an Operetta CLS High-content imaging system using a 20× water immersion objective (NA 1.0) the same day.
Image analysis was performed using Harmony V4.9 (Perkin Elmer). Briefly, nuclei were segmented from background-corrected images using Hoechst intensity, and cell body segmented using HCS CellMask DeepRed. A sliding parabola filter was applied to the AlexaFluor 488 channel (TFEB), before sum pixel intensity in the nuclear and cytoplasmic regions was calculated. A ratio of nuclear to cytoplasmic TFEB was used to define TFEB translocation from the cytosolic to nuclear compartment. The EC50 values derived by fitting the data to a sigmoidal dose response curve using Prism 9 (Graphpad).

For 22 compounds, EC50 results are on record in patent publication US20250340510A1, “Substituted Phenylbenzenesulfonamide Derivatives and Uses Thereof” (Nine Square Therapeutics Corporation, priority 2022, published 2025).

A word on the EC50: it is the midpoint of the concentration-response curve.

Structures are written as SMILES.

Sequence of TRPML1 (Q9GZU1 17-572 limits assumed): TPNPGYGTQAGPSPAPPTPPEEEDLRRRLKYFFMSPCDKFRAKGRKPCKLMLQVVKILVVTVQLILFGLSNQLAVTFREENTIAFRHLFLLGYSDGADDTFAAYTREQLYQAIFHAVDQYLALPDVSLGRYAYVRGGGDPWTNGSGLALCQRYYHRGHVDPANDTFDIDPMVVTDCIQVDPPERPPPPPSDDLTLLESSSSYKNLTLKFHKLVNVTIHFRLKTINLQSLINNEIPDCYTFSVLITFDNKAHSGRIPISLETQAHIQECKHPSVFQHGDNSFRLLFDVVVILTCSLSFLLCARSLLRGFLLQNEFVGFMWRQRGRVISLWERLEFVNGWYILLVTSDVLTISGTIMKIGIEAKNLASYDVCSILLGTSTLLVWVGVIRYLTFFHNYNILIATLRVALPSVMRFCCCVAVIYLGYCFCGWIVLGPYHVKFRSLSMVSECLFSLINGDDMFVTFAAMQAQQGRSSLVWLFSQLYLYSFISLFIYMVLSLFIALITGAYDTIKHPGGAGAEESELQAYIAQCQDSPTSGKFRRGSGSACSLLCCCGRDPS

`CN(c1ccccc1NS(=O)(=O)c1ccc(S(=O)(=O)N(C)C)cc1)C1CCC(C)(C)CC1` [Compound 29, N1-(2-((4,4-dimethylcyclohexyl)(methyl)amino)phenyl)-N4,N4-dimethylbenzene-1,4-disulfonamide]: the half-maximal effective concentration (EC50) on TRPML1 amounted to 510 nM; in the test with TFEB, 2270 nM.
Turning to `CN(CC1CCC1)c1c(Cl)cccc1NS(=O)(=O)c1ccc(S(=O)(=O)N(C)C)cc1` [Compound 69, N1-(3-chloro-2-((cyclobutylmethyl)(methyl)amino)phenyl)-N4,N4-dimethylbenzene-1,4-disulfonamide], the EC50 was 421 nM at TRPML1 and 339 nM in the test with TFEB.
Regarding `CN(C)S(=O)(=O)c1ccc(S(=O)(=O)Nc2ccccc2N(C)[C@H]2CC[C@H](C)CC2)cc1` [Compound 28, N1,N1-dimethyl-N4-(2-(methyl((1r,4r)-4-methylcyclohexyl)amino)phenyl)benzene-1,4-disulfonamide], the EC50 was 350 nM at TRPML1 and 1100 nM in the test with TFEB.
For `CN(CC1(F)CCCC1)c1ccccc1NS(=O)(=O)c1ccc(S(=O)(=O)N(C)C)cc1` [Compound 93, N1-(2-(((1-fluorocyclopentyl)methyl)(methyl)amino)phenyl)-N4,N4-dimethylbenzene-1,4-disulfonamide] the same measures were 857 nM and 649 nM.
For the compound `CN(c1ccccc1NS(=O)(=O)c1ccc(S(=O)(=O)N(C)C)cc1)C1CCOC2(CCC2)C1` (stereo not shown) [Compound 87, N1,N1-dimethyl-N4-(2-(methyl(5-oxaspiro[3.5]nonan-8-yl)amino)phenyl)benzene-1,4-disulfonamide], the EC50 is 823 nM at TRPML1 and 674 nM in the test on TFEB.
Consider `Cc1cccc(NS(=O)(=O)c2ccc(S(=O)(=O)N(C)C)cc2)c1N(C)C1CCCCC1` [Compound 98, N1-(2-(cyclohexyl(methyl)amino)-3-methylphenyl)-N4,N4-dimethylbenzene-1,4-disulfonamide], for which the EC50 on TRPML1 is 46.6 nM; with TFEB, 117 nM.
Regarding `CN(c1ccccc1NS(=O)(=O)c1ccc(S(=O)(=O)N(C)C)cc1)C1CCC(C)(C)C1` (stereo not shown) [Compound 20, N1-(2-((3,3-dimethylcyclopentyl)(methyl)amino)phenyl)-N4,N4-dimethylbenzene-1,4-disulfonamide], the concentration giving a half-maximal response (EC50) came to 260 nM on TRPML1 and 270 nM in the test on TFEB.
For `CN(c1ccccc1NS(=O)(=O)c1ccc(S(=O)(=O)N(C)C)cc1)C1CCOC1` (stereo not shown) [Compound 18, N1,N1-dimethyl-N4-(2-(methyl(tetrahydrofuran-3-yl)amino)phenyl)benzene-1,4-disulfonamide], in that order: 1140 nM and over 9900 nM.
For `CN(Cc1ccsc1)c1ccccc1NS(=O)(=O)c1ccc(S(=O)(=O)N(C)C)cc1` [Compound 13, N1,N1-dimethyl-N4-(2-(methyl(thiophen-3-ylmethyl)amino)phenyl)benzene-1,4-disulfonamide] the same measures were 670 nM and 1350 nM.
`CN(Cc1cscn1)c1c(Cl)cccc1NS(=O)(=O)c1ccc(S(=O)(=O)N(C)C)cc1` [Compound 64, N1-(3-chloro-2-(methyl(thiazol-4-ylmethyl)amino)phenyl)-N4,N4-dimethylbenzene-1,4-disulfonamide]: the EC50 at TRPML1 came to 453 nM; in the test with TFEB it was 1390 nM.
Consider `CN(C)S(=O)(=O)c1ccc(S(=O)(=O)Nc2ccccc2N(C)[C@H]2CC[C@@H](C)CC2)cc1` [Compound 30, N1,N1-dimethyl-N4-(2-(methyl((1s,4s)-4-methylcyclohexyl)amino)phenyl)benzene-1,4-disulfonamide], for which the concentration giving a half-maximal response (EC50) was found to be 360 nM at TRPML1 and 1170 nM in the test on TFEB.
For `CN(Cc1ccccc1)c1ccccc1NS(=O)(=O)c1ccc(S(=O)(=O)N(C)C)cc1` [Compound 26, N1-(2-(benzyl(methyl)amino)phenyl)-N4,N4-dimethylbenzene-1,4-disulfonamide], in that order: 300 nM and 830 nM.
As to `CN(Cc1ccccn1)c1ccccc1NS(=O)(=O)c1ccc(S(=O)(=O)N(C)C)cc1` [Compound 46, N1,N1-dimethyl-N4-(2-(methyl(pyridin-2-ylmethyl)amino)phenyl)benzene-1,4-disulfonamide], the concentration giving a half-maximal response (EC50) at TRPML1 was 2560 nM.
As to `CN(c1cccc(Cl)c1NS(=O)(=O)c1ccc(S(=O)(=O)N(C)C)cc1)C1CCCCC1` [Compound 52, N1-(2-chloro-6-(cyclohexyl(methyl)amino)phenyl)-N4,N4-dimethylbenzene-1,4-disulfonamide], the half-maximal effective concentration (EC50) at TRPML1 worked out at 5780 nM.
The same measure, in the same setting: the value for `CN(C)S(=O)(=O)c1ccc(S(=O)(=O)Nc2ccccc2N(C(=O)C(F)(F)F)C2CCCCC2)cc1` [Compound 63, N-cyclohexyl-N-(2-((4-(N,N-dimethylsulfamoyl)phenyl)sulfonamido)phenyl)-2,2,2-trifluoroacetadmie] was 11000 nM.
For the compound `Cc1nn(C)cc1CN(C)c1ccccc1NS(=O)(=O)c1ccc(S(=O)(=O)N(C)C)cc1` [Compound 50, N1-(2-(((1,3-dimethyl-1H-pyrazol-4-yl)methyl)(methyl)amino)phenyl)-N4,N4-dimethylbenzene-1,4-disulfonamide], the EC50 at TRPML1 was found to be 6550 nM.
For `CN(c1c(NS(=O)(=O)c2ccc(S(=O)(=O)N(C)C)cc2)cccc1C(F)(F)F)C1CCCCC1` [Compound 109, N1-(2-(cyclohexyl(methyl)amino)-3-(trifluoromethyl)phenyl)-N4,N4-dimethylbenzene-1,4-disulfonamide], the concentration for a half-maximal effect (EC50) at TRPML1 worked out at 280 nM.
Take `CN(c1cc(C(F)(F)F)ccc1NS(=O)(=O)c1ccc(S(=O)(=O)N(C)C)cc1)C1CCCCC1` [Compound 116, N1-(2-(cyclohexyl(methyl)amino)-4-(trifluoromethyl)phenyl)-N4,N4-dimethylbenzene-1,4-disulfonamide]: on TRPML1, the EC50 was determined as 1030 nM.
On to `CN(CC1CCOC(C)(C)C1)c1ccccc1NS(=O)(=O)c1ccc(S(=O)(=O)N(C)C)cc1` (stereo not shown) [Compound 100, N1-(2-(((2,2-dimethyltetrahydro-2H-pyran-4-yl)methyl)(methyl)amino)phenyl)-N4,N4-dimethylbenzene-1,4-disulfonamide], for which the EC50 on TRPML1 is 1160 nM.
On the same count and under the same terms, the value for `CN(Cc1cscn1)c1ccccc1NS(=O)(=O)c1ccc(S(=O)(=O)N(C)C)cc1` [Compound 45, N1,N1-dimethyl-N4-(2-(methyl(thiazol-4-ylmethyl)amino)phenyl)benzene-1,4-disulfonamide] was 2060 nM; that for `Cc1cnn(C)c1CN(C)c1ccccc1NS(=O)(=O)c1ccc(S(=O)(=O)N(C)C)cc1` [Compound 80, N1-(2-(((1,4-dimethyl-1H-pyrazol-5-yl)methyl)(methyl)amino)phenyl)-N4,N4-dimethylbenzene-1,4-disulfonamide] was 5940 nM.
Same read-out and setting: next, `CN(c1ccccc1NS(=O)(=O)c1ccc(S(=O)(=O)N(C)C)cc1)C1CCCCC1(F)F` (stereo not shown) [Compound 103, N1-(2-((2,2-difluorocyclohexyl) (methyl)amino)phenyl)-N4,N4-dimethylbenzene-1,4-disulfonamide]: 1970 nM.
